Test results: ChEMBL document CHEMBL3301472, “MMV Malaria Box HIV and cytotoxicity screening”

What was measured:
[1] = MMV: MTT Cytotoxicity Assay Day 3 pi, U87-CD4-CCR5 cells, % cell death @ 5mM compound; assay type: toxicity, cell-based; conditions: human, u87-cd4-ccr5, 5000 µM
[2] = MMV: MTT Cytotoxicity Assay Day 3 pi, U87-CD4-CXCR4 cells, % cell death @ 5mM compound; assay type: toxicity, cell-based; conditions: human, u87-cd4-cxcr4, 5000 µM
[3] = MMV: MTT Cytotoxicity Assay Day 7 pi of Assay #6 (compound washed out Day 1 pi), U87-CD4-CCR5 cells, % cell death @ 5mM compound; assay type: toxicity, cell-based; conditions: human, u87-cd4-ccr5, 5000 µM
[4] = MMV: MTT Cytotoxicity Assay Day 7 pi of Assay #7 (compound washed out Day 1 pi), U87-CD4-CXCR4 cells, % cell death @ 5mM compound; assay type: toxicity, cell-based; conditions: human, u87-cd4-cxcr4, 5000 µM
[5] = tested on: Human immunodeficiency virus 1; assay: MMV: HIV JRFL CCR5-tropic replication-competent virus, NO washout, P24 ELISA Day 7 pi, U87-CD4-CCR5, % inhibition at 5 mM compound; assay type: functional; design: dose or concentration left out as unconfirmed; conditions: Human immunodeficiency virus 1, JR-FL, U87/CD4/CCR5, 168 h
[6] = MMV: MTT Cytotoxicity Assay Day 7 pi of Assay #10 (NO washout), U87-CD4-CCR5 cells, % cell death @ 5mM compound; assay type: toxicity, cell-based; conditions: human, u87-cd4-ccr5, 5000 µM
[7] = MMV: MTT Cytotoxicity Assay Day 7 pi of Assay #11 (NO washout), U87-CD4-CXCR4 cells, % cell death @ 5mM compound; assay type: toxicity, cell-based; conditions: human, u87-cd4-cxcr4, 5000 µM
[8] = tested on: Human immunodeficiency virus 1; assay: MMV: HIV CXCR4-tropic env NL4-3 pseudovirus assay produces luciferase signal in lieu of replicating viral particles Day 3 pi, U87-CD4-CXCR4, % inhibition at 5 mM compound; assay type: functional; design: dose or concentration left out as unconfirmed; conditions: Human immunodeficiency virus 1, NL4-3, U87.CD4.CXCR4, 72 h

SMILES | % Cell Death [1] | % Cell Death [2] | % Cell Death [3] | % Cell Death [4] | inhibition [5] | % Cell Death [6] | % Cell Death [7] | inhibition [8]
Cc1ccc(C(=O)c2oc3ccc4c(C)cc(=O)oc4c3c2C)cc1 | 59 | 94 | 7 | 22 | 8% | 83 | 92 | –
CCCc1c(C)nc2ccccc2c1O | 5 | 8 | 22 | 31 | -2% | 18 | 51 | 9%
CN(C)CCCNc1c2ccccc2nc2ccccc12 | 30 | 21 | 8 | 15 | 3% | 30 | -4 | 1%
COc1ccc(C(=O)Nc2ccc(Cl)cc2C(=O)Nc2ccncc2)cc1 | 14 | 22 | -7 | -11 | 0% | 0 | 33 | –
